Reference: patent publication US20250127768A1, “THERAPEUTIC TARGETING OF INOSITOL PYROPHOSPHATE SYNTHESIS IN CANCER” (The Broad Institute, Inc., priority 2022, published 2025)

Columns and labels:
[1] = system: XPR1-dependent cell lines (RMGI); experiment: phosphate efflux in ovarian cancer cell line (FIG. 6A); assay type: cell-based; conditions: as compared to RBD (protein inhibitor of XPR1)
Source text: (§1) FIG. 6A-FIG. 6B—IP6K inhibitors. FIG. 6A. Graph showing phosphate efflux in an ovarian cancer cell line treated with TNP or RBD_00. FIG. 6B. Graph showing cell viability in an ovarian cancer cell line treated with TNP or RBD_00 and the indicated CRISPR guide sequences.

ovarian cancer cell line = experiment: cell viability in ovarian cancer cell line with CRISPR guide sequences (FIG. 6B); assay type: cell-based; conditions: high doses; specificity to XPR1-dependent cell lines
Source text: as §1

## O=[N+]([O-])c1ccc(CNc2nc(NCc3cccc(C(F)(F)F)c3)nc3nc[nH]c23)cc1 [TNP, N2-(m-(trifluoromethyl)benzyl) N6-(p-nitrobenzyl)purine]
[1]
  phosphate efflux: did not observe a decrease in phosphate efflux
Ovarian cancer cell line
  proliferation effects: Proliferation effects were observed at high doses of TNP, but the effects were not specific to XPR1-dependent cell lines
